pIC50: −log10 of the molar value.
Experiments:
[1] = Area under the plasma concentration curve was determined at 0-6 hours in rat after ~2 mg/kg oral dosage; n=2
[2] = In vitro intrinsic clearance against rat hepatocytes
[3] = Bioavailability in rat after 4-10 mg/kg oral dosage; n=3; assay type: ADME, organism-based; settings: in vivo
[4] = molecular target: T1, C-C chemokine receptor type 5 (Homo sapiens, UniProt P51681); assay: Displacement of [125I]-MIP-1 alpha from human C-C chemokine receptor type 5 expressed in CHO cells; assay type: cell-based
T1 sequence (P51681 whole entry): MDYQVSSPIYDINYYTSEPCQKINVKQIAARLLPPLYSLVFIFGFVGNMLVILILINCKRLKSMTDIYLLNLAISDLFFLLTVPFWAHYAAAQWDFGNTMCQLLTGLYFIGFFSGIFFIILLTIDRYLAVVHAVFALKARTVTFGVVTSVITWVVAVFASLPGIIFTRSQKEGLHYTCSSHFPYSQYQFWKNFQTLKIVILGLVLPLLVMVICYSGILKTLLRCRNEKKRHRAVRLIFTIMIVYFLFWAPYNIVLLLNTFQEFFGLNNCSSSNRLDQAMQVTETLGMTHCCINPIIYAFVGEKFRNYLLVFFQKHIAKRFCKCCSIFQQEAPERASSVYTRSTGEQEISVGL

[5] = Clearance in rat after 1 mg/kg i.v. dosage; n=3; settings: in vivo, iv
[6] = molecular target: T1, C-C chemokine receptor type 5; assay: Inhibition of MIP-1beta stimulated calcium transients in CCR5-expressing CHO cells; assay type: functional, cell-based
[7] = Ability to inhibit the chemotaxis of human AlloT cells in response to MIP-1beta; assay type: functional, cell-based

Row | Compound | pIC50 [4] | other results
1 | CCN(C(=O)Cc1ccc(S(C)(=O)=O)cc1)C1CCN(CCC(c2ccc(NS(C)(=O)=O)cc2)c2cccc(F)c2)CC1 (stereo not given) | – | AUC at 6 h [1]: 0.002 µM·h; Clint [2]: 15 uL/min/10e6 cells
2 | CCN(C(=O)Cc1ccc(S(C)(=O)=O)cc1)C1CCN(CCC(c2ccccc2)c2ccc(OC)cc2)CC1 (stereo not given) | 8.20 | Clint [2]: 41 uL/min/10e6 cells
3 | CCN(C(=O)Cc1ccc(S(C)(=O)=O)cc1)C1CCN(CCC(c2ccc(Cl)cc2)c2ccc(Cl)cc2)CC1 | 6.12 | –
4 | CCN(C(=O)Cc1ccc(S(C)(=O)=O)cc1)C1CCN(CCC(c2ccc(Cl)cc2)c2cccc(F)c2)CC1 (stereo not given) | 7.72 | –
5 | CCN(C(=O)Cc1ccc(S(C)(=O)=O)cc1)C1CCN(CCC(c2ccccc2)c2ccc(NC(=O)Cc3ccccc3)cc2)CC1 (stereo not given) | 8.23 | AUC at 6 h [1]: 0.012 µM·h
6 | CCN(C(=O)Cc1ccc(S(C)(=O)=O)cc1)C1CCN(CCC(c2ccccc2)c2ccc(C)cc2)CC1 (stereo not given) | 7.55 | –
7 | CCN(C(=O)Cc1ccc(S(C)(=O)=O)cc1)C1CCN(CCC(c2ccc(NC(C)=O)cc2)c2cccc(F)c2)CC1 (stereo not given) | 8.10 | AUC at 6 h [1]: 0.008 µM·h; Clint [2]: 17 uL/min/10e6 cells
8 | CCN(C(=O)Cc1ccc(S(C)(=O)=O)cc1)C1CCN(CCC(c2ccccc2)c2ccc(NC(=O)C(C)(C)C)cc2)CC1 (stereo not given) | 7.66 | –
9 | CCN(C(=O)Cc1ccc(S(C)(=O)=O)cc1)C1CCN(CCC(c2ccccc2)c2ccc(NC(C)=O)cc2)CC1 (stereo not given) | 7.59 | –
10 | CCN(C(=O)Cc1ccc(S(C)(=O)=O)cc1)C1CCN(CCC(c2ccccc2)c2ccc(NS(C)(=O)=O)cc2)CC1 (stereo not given) | 7.74 | pIC50 [6]: 7.62; pIC50 [7]: 7.51
11 | CCN(C(=O)Cc1ccc(S(C)(=O)=O)cc1)C1CCN(CCC(c2ccccc2)c2ccc(C#N)cc2)CC1 (stereo not given) | > 9.00 | –
12 | CCN(C(=O)Cc1ccc(S(C)(=O)=O)cc1)C1CCN(CCC(c2ccccc2)c2ccc(SC)cc2)CC1 (stereo not given) | 7.92 | –
13 | CCN(C(=O)Cc1ccc(S(C)(=O)=O)cc1)C1CCN(CCC(c2ccccc2)c2ccc(NC(=O)c3ccccc3)cc2)CC1 (stereo not given) | 6.89 | –
14 | CCN(C(=O)Cc1ccc(S(C)(=O)=O)cc1)C1CCN(CCC(c2ccccc2)c2ccc(Cl)cc2)CC1 (stereo not given) | 8.07 | bioavailability [3]: 3%; Clint [2]: 34 uL/min/10e6 cells; clearance [5]: 46 mL/min/kg
15 | CCN(C(=O)Cc1ccc(S(C)(=O)=O)cc1)C1CCN(CCC(c2ccccc2)c2ccc(C(=O)OC)cc2)CC1 (stereo not given) | 8.15 | Clint [2]: > 150 uL/min/10e6 cells
16 | CCN(C(=O)Cc1ccc(S(C)(=O)=O)cc1)C1CCN(CCC(c2ccccc2)c2ccc(-c3ccccc3)cc2)CC1 (stereo not given) | 7.07 | –
17 | CCN(C(=O)Cc1ccc(S(C)(=O)=O)cc1)C1CCN(CCC(c2ccc(NC(=O)OC(C)(C)C)cc2)c2cccc(F)c2)CC1 (stereo not given) | 7.05 | –
18 | CS(=O)(=O)c1ccc(CC(=O)N(C2CC2)C2CCN(CCC(c3ccccc3)c3ccccc3)CC2)cc1 | 7.49 | –
19 | CCN(C(=O)Cc1ccc(S(C)(=O)=O)cc1)C1CCN(CCC(c2ccc(F)cc2)c2ccc(F)cc2)CC1 | 6.11 | AUC at 6 h [1]: 1.87 µM·h; bioavailability [3]: 56%; Clint [2]: 4 uL/min/10e6 cells; clearance [5]: 10 mL/min/kg
20 | CCN(C(=O)Cc1ccc(S(C)(=O)=O)cc1)C1CCN(CCC(c2ccccc2)c2cccc(Cl)c2)CC1 (stereo not given) | 7.24 | –
21 | CCN(C(=O)Cc1ccc(S(C)(=O)=O)cc1)C1CCN(CCC(c2ccccc2)c2ccc(NS(=O)(=O)c3ccccc3)cc2)CC1 (stereo not given) | 6.13 | –

Further compounds by rising pIC50 [4], results first:

Row | pIC50 [4] | Compound | other results
22 | 6.51 | CCN(C(=O)Cc1ccc(S(C)(=O)=O)cc1)C1CCN(CCC(c2ccccc2)c2ccc(F)cc2)CC1 (stereo not given) | –
23 | 6.59 | CCN(C(=O)Cc1ccc(S(C)(=O)=O)cc1)C1CCN(CCC(c2ccccc2)c2ccc(C(N)=O)cc2)CC1 (stereo not given) | –
24 | 6.70 | CCN(C(=O)Cc1ccc(S(C)(=O)=O)cc1)C1CCN(CCC(c2ccccc2)c2ccc(NC(=O)OC(C)(C)C)cc2)CC1 (stereo not given) | –
25 | 6.70 | CCN(C(=O)Cc1ccc(S(C)(=O)=O)cc1)C1CCN(CCC(c2ccccc2)c2ccc(N)cc2)CC1 (stereo not given) | –
26 | 7.11 | CCN(C(=O)Cc1ccc(S(C)(=O)=O)cc1)C1CCN(CCC(c2ccccc2)c2ccc(Cl)c(Cl)c2)CC1 (stereo not given) | –
27 | 7.74 | CCN(C(=O)Cc1ccc(S(C)(=O)=O)cc1)C1CCN(CCC(c2ccccc2)c2ccccc2)CC1 | –
28 | 7.89 | C=CCN(C(=O)Cc1ccc(S(C)(=O)=O)cc1)C1CCN(CCC(c2ccccc2)c2ccccc2)CC1 | AUC at 6 h [1]: 0.132 µM·h; bioavailability [3]: 11%; Clint [2]: 54 uL/min/10e6 cells; clearance [5]: 54 mL/min/kg
29 | 7.96 | CCN(C(=O)Cc1ccc(S(C)(=O)=O)cc1)C1CCN(CCC(c2ccccc2)c2ccc(NS(=O)(=O)Cc3ccccc3)cc2)CC1 (stereo not given) | –
30 | 8.64 | CCN(C(=O)Cc1ccc(S(C)(=O)=O)cc1)C1CCN(CCC(c2ccccc2)c2ccc(C(F)(F)F)cc2)CC1 (stereo not given) | Clint [2]: 37 uL/min/10e6 cells

— ChEMBL document CHEMBL1143640, “Modulators of the human CCR5 receptor. Part 2: SAR of substituted 1-(3,3-diphenylpropyl)-piperidinyl phenylacetamides” (Bioorg Med Chem Lett, 2005)
